Results as given in patent publication US6342508B1, “N-hydroxy-2-(Alkyl,Aryl or Heteroaryl sulfanyl, sulfinyl or sulfonyl) 3-substituted alkyl, aryl or heteroarylamides as matrix metalloproteinase inhibitors” (American Cyanamid Company, priority 1997, dated 2002).
Where two headings read alike, the source gives them in different places. Blank lines part the entries; values can stand above or below the molecule they belong to.

Legend:
[1] = target: T1, MMP 13 (Homo sapiens, UniProt P45452); experiment: MMP 13 inhibition (standard/manual test); format: biochemical
[2] = target: T2, TACE (Homo sapiens, UniProt P78536); experiment: Procedure for Measuring TACE Inhibition (fluorescent peptidyl substrate); format: biochemical; settings: for IC50: read-out: TACE IC 50; for inhibition at 1 µM: read-out: TACE % inhibition at 1 micromolar
T2 construct: purchased Immunex
Experimental: Using 96-well black microtiter plates, each well recieves a solution composed of 10 μL TACE (Immunex, final concentration 1 μg/mL), 70 μL Tris buffer, pH 7.4 containing 10% glycerol (final concentration 10 mM), and 10 μL of test compound solution in DMSO (final concentration, DMSO concentration <1%) and incubated for 10 minutes at room temperature. The reaction is initiated by addition of a fluorescent peptidyl substrate (final concentration 100 μM) to each well and then shaking on a shaker for 5 sec. The reaction is read (excitation 340 nm, emission 420 nm) for 10 min. and the increase in fluorescence over time is plotted as a linear line. The slope of the line is calculated and represents the reaction rate. […] The mean (x±sem) of the control rate is calculated and compared for statistical significance (p<0.05) with drug-treated rates using Dunnett's multiple comparison test.

[3] = target: T3, MMP 9 (Homo sapiens, UniProt P14780); experiment: In Vitro Gelatinase Assay (human neutrophil gelatinase B, thiopeptide substrate/DTNB); format: biochemical
T3 construct: from tissue; host or cells: human neutrophils
Experimental: The assay is based on the cleavage of the thiopeptide substrate ((Ac-Pro-Leu-Gly(2 Mercapto-4 methyl-pentanoyl)-Leu-Gly-OEt), Bachem Bioscience) by the enzyme, gelatinase, releasing the substrate product which reacts colorimetrically with DTNB ((5,5′-dithio-bis(2-nitro-benzoic acid)). The enzyne activity is measured by the rate of the color increase. The thiopeptide substrate is made up fresh as a 20 mM stock in 100% DMSO and the DTNB is dissolved in 100% DMSO as a 100 mM stock and stored in dark at room temperature. Both the substrate and DTNB are diluted together to 1 mM with substrate buffer (50 mM HEPES pH 7.5, 5 mM CaCl2) before use.
The increase in OD405 is plotted and the slope of the line is calculated which represents the reaction rate.
The mean (x±sem) of the control rate is calculated and compared for statistical significance (p<0.05) with drug-treated rates using Dunnett's multiple comparison test.

[4] = target: T4, MMP 1 (Homo sapiens, UniProt P03956); experiment: In Vitro Collagenase Assay (human recombinant fibroblast collagenase, fluorogenic peptide substrate); format: biochemical; settings: for IC50: read-out: MMP 1 IC 50
T4 construct: human recombinant fibroblast collagenase (truncated mw=18,828, WAR, Radnor)
T4 sequence (P03956 100-269 limits assumed): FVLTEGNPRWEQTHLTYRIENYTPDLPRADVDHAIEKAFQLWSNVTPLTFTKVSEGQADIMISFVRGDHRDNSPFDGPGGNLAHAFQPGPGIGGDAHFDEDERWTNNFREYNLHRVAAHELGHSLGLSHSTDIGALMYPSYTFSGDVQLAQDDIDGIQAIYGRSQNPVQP
Experimental: The assay is based on the cleavage of a peptide substrate ((Dnp-Pro-Cha-Gly-Cys(Me)-His-Ala-Lys(NMa)-NH2), Peptide International Inc.) by collagenase releasing the fluorescent NMa group which is quantitated on the fluorometer. Dnp quenches the NMa fluorescence in the intact substrate. […] Substrate is dissolved in methanol and stored frozen in 1 mM aliquots. […] For the assay, substrate is dissolved in HCBC buffer to a final concentration of 10 μM and collagenase to a final concentration of 5 nM. Compounds are dissolved in methanol, DMSO, or HCBC. The methanol and DMSO are diluted in HCBC to <1.0%. Compounds are added to the 96 well plate containing enzyme and the reaction is started by the addition of substrate.
The slope of the line is calculated and represents the reaction rate.
The mean (x±sem) of the control rate is calculated and compared for statistical significance (p<0.05) with drug-related rates using Dunnett's multiple comparison test.

[5] = target: T1, MMP 13; experiment: MMP 13 inhibition (HTS); format: biochemical

T3 sequence (P14780 94-707): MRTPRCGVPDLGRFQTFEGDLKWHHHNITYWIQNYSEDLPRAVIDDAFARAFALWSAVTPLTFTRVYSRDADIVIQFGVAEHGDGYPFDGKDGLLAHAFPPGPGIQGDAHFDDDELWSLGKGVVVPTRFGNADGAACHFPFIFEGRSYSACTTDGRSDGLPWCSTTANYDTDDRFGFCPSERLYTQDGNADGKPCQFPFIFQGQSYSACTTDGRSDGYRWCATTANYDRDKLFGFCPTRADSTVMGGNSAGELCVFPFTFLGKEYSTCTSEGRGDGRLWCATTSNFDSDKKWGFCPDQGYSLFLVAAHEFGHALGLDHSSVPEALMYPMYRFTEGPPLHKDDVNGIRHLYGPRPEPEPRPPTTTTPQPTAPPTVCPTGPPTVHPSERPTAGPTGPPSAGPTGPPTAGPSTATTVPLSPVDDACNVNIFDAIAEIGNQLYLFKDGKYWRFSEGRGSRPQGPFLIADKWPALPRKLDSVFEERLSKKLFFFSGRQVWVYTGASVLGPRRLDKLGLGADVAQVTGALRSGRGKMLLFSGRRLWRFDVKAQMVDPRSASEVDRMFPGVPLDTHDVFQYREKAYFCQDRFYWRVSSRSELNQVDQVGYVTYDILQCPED
T2 sequence (P78536 215-824): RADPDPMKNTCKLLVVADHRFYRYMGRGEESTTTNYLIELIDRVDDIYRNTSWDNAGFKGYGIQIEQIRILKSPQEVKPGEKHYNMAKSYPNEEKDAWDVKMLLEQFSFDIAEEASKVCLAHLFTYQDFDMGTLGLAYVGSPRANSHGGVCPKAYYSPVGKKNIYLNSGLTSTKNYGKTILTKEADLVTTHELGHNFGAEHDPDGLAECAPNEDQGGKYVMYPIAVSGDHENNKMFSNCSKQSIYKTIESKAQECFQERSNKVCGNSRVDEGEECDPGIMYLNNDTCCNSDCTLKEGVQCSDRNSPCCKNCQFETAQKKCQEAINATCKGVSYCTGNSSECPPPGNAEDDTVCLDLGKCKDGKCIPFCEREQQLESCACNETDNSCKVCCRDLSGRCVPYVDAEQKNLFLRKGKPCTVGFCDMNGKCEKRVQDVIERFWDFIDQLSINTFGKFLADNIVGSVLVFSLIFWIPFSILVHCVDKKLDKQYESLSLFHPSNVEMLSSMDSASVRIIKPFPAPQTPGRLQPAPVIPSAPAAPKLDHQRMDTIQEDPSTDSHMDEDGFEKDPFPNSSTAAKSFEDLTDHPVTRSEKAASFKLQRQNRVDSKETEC

Molecule: 2-(4-Methoxy-benzenesulfonyl)-4methyl-2-pyridin-ylmethyl-pentanoic acid hydroxyamide [Example 66]
- IC50 ([1]; read-out: MMP 13 IC 50): 226 nM
- TACE % inhibition at 1 micromolar [2]: 42.33%
- IC50 ([3]; read-out: MMP 9 IC 50): 131 nM
- IC50 [4]: 1600 nM

Molecule: CCCCC[C@H](C(=O)NO)[S@+]([O-])c1ccc(OC)cc1 (relative stereo) [Example 81a, 2R*-(4-methoxyphenyl-S*-sulfinyl)-heptanoic acid hydroxyamide]
- IC50 ([1]; read-out: MMP 13 IC 50): 43.9 nM
- IC50 [2]: 27.1 nM
- IC50 ([3]; read-out: MMP 9 IC 50): 231 nM
- IC50 [4]: 2040 nM

Molecule: CCN(CC)CCOc1ccc(CC(C)(C(=O)NO)S(=O)(=O)c2ccc(OC)cc2)cc1 (stereo not shown) [Example 21, N-Hydroxy-2-(4-methoxy-benzenesulfonyl)-2-methyl-3-[4-(2-N,N-diethylamino-ethoxy)-phenyl]-propionamide]
- IC50 ([1]; read-out: MMP 13 IC 50): 15.3 nM
- inhibition at 1 µM [2]: 39%
- IC50 ([3]; read-out: MMP 9 IC 50): 13.2 nM
- IC50 [4]: 318 nM

Molecule: Cc1occc1S(=O)(=O)C(C)(Cc1ccccc1)C(=O)NO (stereo not shown) [Example 43, 2-Methyl-2-(2-methyl-furan-3-sulfonyl)-3-phenyl-propionic acid hydroxamide]
- MMP 13 % inhibition at 1 micromolar [1]: 55.5%
- TACE % inhibition at 1 micromolar [2]: 46.6%
- MMP 9 % inhibition at 1 micromolar [3]: 34.7%
- MMP 1 % inhibition at 1 micromolar [4]: 66.1%

Molecule: CC(Cc1ccc(OCCN2CCCCC2)cc1)(C(=O)NO)S(=O)(=O)c1cccs1 (stereo not shown) [Example 45, 2-Methyl-3-4-(2-piperdin-1-yl-ethoxy)-phenyl-2-(thiophene-2-sulfonyl)-propionic acid hydroxamide]
- TACE % inhibition at 1 micromolar [2]: 20.4%
- MMP 9 % inhibition at 1 micromolar [3]: 48.6%
- MMP 1 % inhibition at 1 micromolar [4]: 49%

Molecule: CC(Cc1ccccc1)(C(=O)NO)S(=O)(=O)c1cccs1 (stereo not shown) [Example 48, 2-Methyl-3-phenyl-2-(thiophene-2-sulfonyl)-propionic acid hydroxamide]
- TACE % inhibition at 1 micromolar [2]: 51.1%
- MMP 9 % inhibition at 1 micromolar [3]: 79.1%
- MMP 1 % inhibition at 1 micromolar [4]: 99.1%

Molecule: COc1ccc(S(=O)(=O)C2(C(=O)NO)CCN(Cc3ccc(-c4ccccc4)cc3)CC2)cc1 [Example 88, 1-Biphenyl-4-ylmethyl-4-(4-methoxy-benzenesulfonyl)-piperidine-4-carboxylic acid hydroxamide]
- IC50 ([3]; read-out: MMP 9 IC 50): 12.8 nM
- IC50 [4]: 1330 nM

Molecule: CC(=O)Nc1ccc(SC(Cc2ccccc2)C(=O)NO)cc1 (stereo not shown) [Example 128, 2-(4-Acetylamino-benzenesulfanyl)-N-hydroxy-3-phenyl-propionamide]
- IC50 ([1]; manual, nM): 255 nM
- inhibition at 0.2 µM ([5]; read-out: MMP 13 % inhibition at 0.2 μM (HTS), 0.2 μM): 91%
- IC50 ([3]; solid phase compounds table, read-out: MMP 9): 213 nM

Molecule: CCCCCCC(C(=O)NO)[S+]([O-])c1ccc(NS(=O)(=O)c2ccc(-c3ccccn3)s2)cc1 (stereo not shown) [Example 237, 5-Pyridin-2-yl-thiophene-2-sulfonic acid 4(1-hydroxycarbamoyl-heptylsulfinyl)-hydroxy amide]
- TACE % inhibition at 1 mM [2]: 38.2%
- MMP 13 % inhibition at 36 nM (HTS) [5]: 55%

Molecule: N-Hydroxy-3-methyl-2-phenethylsulfinyl-butyramide [Example 117]
- TACE % inhibition at 1 mM [2]: 8.1%
- MMP 13 % inhibition at 0.2 μM (HTS) ([5]; 0.2 μM): 7%

Next, values leading:

- IC50 ([1]; read-out: MMP 13 IC 50): 308 nM
- IC50 ([3]; read-out: MMP 9 IC 50): 346 nM
- melting point: 135 °C
Molecule: COc1ccc([S+]([O-])C(C(=O)NO)c2ccccc2)cc1 (stereo not shown) [Example 8, N-Hydroxy-2-(4-methoxy-benzenesulfinyl)-2-phenyl-acetamide]

- IC50 ([1]; read-out: MMP 13 IC 50): 14 nM
- IC50 [2]: 626 nM
- IC50 ([3]; read-out: MMP 9 IC 50): 11 nM
- IC50 [4]: 239 nM
Molecule: COc1ccc(S(=O)(=O)C(C)(CC=C(C)C)C(=O)NO)cc1 (stereo not shown) [Example 13, 2-(4-Methoxy-benzenesulfonyl)-2-dimethyl-hex-4-enoic acid hydroxyamide]

- TACE % inhibition at 1 micromolar [2]: 41.00%
- IC50 ([3]; read-out: MMP 9 IC 50): 8.9 nM
- IC50 [4]: 239 nM
Molecule: COc1ccc(S(=O)(=O)C(C)(Cc2ccc(OCCN3CCCCC3)cc2)C(=O)NO)cc1 (stereo not shown) [Example 17, N-Hydroxy-2-(4-methoxy-benzenesulfonyl)-2-methyl-3-[4-(2-piperidin-1-yl-ethoxy)-phenyl]-proponamide]

- IC50 ([1]; read-out: MMP 13 IC 50): 8 nM
- IC50 ([3]; read-out: MMP 9 IC 50): 26.7 nM
Molecule: CCOc1ccc(S(=O)(=O)C(C)(Cc2ccc(OCCN(CC)CC)cc2)C(=O)NO)cc1 (stereo not shown) [Example 25, N-Hydroxy-2-(4-ethoxy-benzenesulfonyl)-2-methyl-3-[4-(2-N,N-diethylamino-ethoxy)-phenyl]-propionamide]

- IC50 ([1]; read-out: MMP 13 IC 50): 3.6 nM
- TACE % inhibition at 1 micromolar [2]: 41%
- IC50 ([3]; read-out: MMP 9 IC 50): 4.3 nM
- IC50 [4]: 297 nM
Molecule: CCN(CC)CCOc1cccc(CC(C)(C(=O)NO)S(=O)(=O)c2ccc(OC)cc2)c1 (stereo not shown) [Example 29, N-Hydroxy-2-(4-methoxy-benzenesulfonyl)-2-methyl-3-[3-(2-N,N-diethylamino-ethoxy)-phenyl]-propionamide]

- IC50 ([1]; read-out: MMP 13 IC 50): 48.2 nM
- IC50 ([3]; read-out: MMP 9 IC 50): 234 nM
- IC50 [4]: 456 nM
Molecule: CCCC(Cc1ccc(OCCN2CCOCC2)cc1)(C(=O)NO)S(=O)(=O)c1ccc(OC)cc1 (stereo not shown) [Example 35, 2-(4-Methoxy-benzenesulfonyl)-2-[4-(2-morpholin4yl-oxy)-benzyl]-pentanoic acid hydroxyamide]

- MMP 13 % inhibition at 1 micromolar [1]: 14.3%
- IC50 [2]: 87 nM
- MMP 9 % inhibition at 1 micromolar [3]: 31.6%
- MMP 1 % inhibition at 1 micromolar [4]: 9%
Molecule: CCCCCCC(Sc1ccc(OC)cc1)C(=O)NO (stereo not shown) [Example 37, 2-(4-Methoxy-benzenesulfanyl)-octanoic acid hydroxyamide]

- inhibition at 1 µM [2]: 15.5%
- melting point: 58 to 59 °C
- IC50 [4]: 100 nM
Molecule: COc1ccc(CS(=O)(=O)C(C)(Cc2ccccc2)C(=O)NO)cc1 (stereo not shown) [Example 41, N-Hydroxy-2-(4-methoxy-phenylmethanesulfonyl)-2-methyl-3-phenyl propionic acid hydroxamide]

- MMP 13 % inhibition at 1 micromolar [1]: 54.6%
- MMP 9 % inhibition at 1 micromolar [3]: 23.7%
- MMP 1 % inhibition at 1 micromolar [4]: 10.1%
Molecule: CC(C(=O)O)S(=O)(=O)CCCCCCCCS(=O)(=O)C(C)C(=O)NO (stereo not shown) [Example 49, 2-[8-(1-carboxy-ethanesfonyl)-octane-1-sulfonyl]-propionic acid hydroxyamide]

- IC50 ([1]; read-out: MMP 13 IC 50): 10.6 nM
- IC50 ([3]; read-out: MMP 9 IC 50): 58.4 nM
- IC50 [4]: 51.1 nM
Molecule: CC(Cc1ccc(OCCN2CCCCC2)cc1)(C(=O)NO)S(=O)(=O)c1ccc(Br)cc1 (stereo not shown) [Example 50, 2-(4Bromo-benzenesulfonyl)-2-methyl-3-[4-(2-piperdine-1-yl-ethoxy)-phenyl]-propionic acid hydroxanide]

- IC50 ([3]; read-out: MMP 9 IC 50): 5 nM
- melting point: 168 to 170 °C
- IC50 [4]: 368 nM
Molecule: COc1ccc(S(=O)(=O)C2(C(=O)NO)CCN(Cc3ccc4ccccc4c3)CC2)cc1 [Example 87, 4-(4methoxy-benzene-sulfonyl)-1-napthalene-2-yl-methylpiperidine-4-carboxylic acid hydroxamide]

- TACE % inhibition at 1 mM [2]: 48.3%
- MMP 13 % inhibition at 36 nM (HTS) [5]: 59%
Molecule: CCCCCCC(C(=O)NO)[S+]([O-])c1ccc(NS(=O)(=O)c2c(C)nn(C)c2Cl)cc1 (stereo not shown) [Example 235, 5-Chloro-1,3-dimethyl-1H-pyrazole-4-sulfonic acid 4-(1-hydroxycarbamoyl-heptylsulfinyl)-hydroxyamide]

- TACE % inhibition at 1 mM [2]: 40.3%
- MMP 13 % inhibition at 36 nM (HTS) [5]: 48%
Molecule: CCCCCCC(C(=O)NO)S(=O)(=O)c1ccc(NS(=O)(=O)c2cccc3nsnc23)cc1 (stereo not shown) [Example 240, Benzo[1,2,5]thiadiazole-4-sulfonic acid 4-(1-hydrxycarbamoyl-heptylsulfonyl)-hydroxyamide]
